Test results published in article PMC12592319, “Predicting Food Effect On Oral Drug Absorption For Solubility-Epithelial Membrane Permeation-Limited Cases With Bile Micelle Solubilization” (Pharmaceutical Research, 2025).
In brackets after ≈: the same amount, converted by molar mass. Read-outs that look alike come from different tables or passages of the source. Values belong to the compound of their own block, whether it stands above or below them.

How the values were obtained:
[1] = pKa measurement (SiriusT3, UV-metric/pH-metric titration); format: physicochemical; conditions: ionic strength 0.168 mol/L, 37°C
Description: The pKa measurements were performed using a SiriusT3 automatic titrator, with a spectrometric (UV-metric) or titration (pH-metric) method. The UV-metric method used a fiber optic dip probe, a deuterium lamp UV light source, and a photodiode array detector to capture the absorption spectra of a sample solution over the course of three titrations, across the pH range 2.0–12.0. […] Titrations were carried out under a controlled temperature of 37 ± 0.2°C.
SiriusT3 software v2.0 was used to apply principal component analysis to the spectral data to resolve the molar absorptivity spectra of each sample species and determine the psKa values of the compounds in the co-solvent. The pKa values under aqueous conditions were calculated from the co-solvent data using the Yasuda-Shedlovsky extrapolation method.
Additional potentiometric titrations were performed for each drug, which confirmed that no additional non-UV active pKas were present within the titration pH range.

[2] = Octanol-water partition/distribution coefficient (logPoct, logDoct); format: physicochemical; conditions: calculated from logPoct and pKa using the Henderson-Hasselbalch equation
Description: Table II Physicochemical Properties and Caco-2 Permeability of Model Drugs | column: logDoct,pH 6.5^c

[3] = Equilibrium solubility measurement (shake-flask) in blank FaSSIF, FaSSIF, FeSSIF; format: physicochemical; conditions: thermodynamic from solid, pH 6.5, 37°C, 72 h, mean ± S.D., N = 3
Description: A shake-flask method was used for equilibrium solubility measurement. Each drug (10 mg) was added to the 15 mL test tube. Blank FaSSIF (28.7 mM phosphate buffer, pH 6.5 adjusted by NaOH), FaSSIF (3 mM TC, 0.75 mM EL in blank FaSSIF), or FeSSIF (15 mM TC, 3.75 mM EL in blank FaSSIF) was added. The test tube was placed horizontally in a reciprocal shaker. After shaking for 72 h at 37°C (at 90 rpm, motion width: 2.5 cm), the sample was filtered (hydrophilic PVDF, φ = 4.0 mm, pore size: 0.22 µm, Merck). The first few droplets were discarded to avoid filter adsorption. The concentration of each drug was measured by UV absorbance. […] After measuring the final pH (9615S-10D Standard ToupH electrode (HORIBA Advanced Techno Co., Ltd., Kyoto, Japan)), the residual particles were collected by vacuum filtration and analyzed by powder X-ray diffraction (PXRD) (Supplemental Information Figure S1).

Caco-2 = tested on: Caco-2; design: method as in PMID 9795088, PMID 10767597, PMID 15032311; conditions: cited from earlier work
[4] = cited from earlier work

pKa ([1]; acidic pKa, read-out: pKa (A)): < 2
pKa ([1]; basic pKa, read-out: pKa (B)): 8.29
logDoct,pH 6.5 [2]: 2.6
solubility at 72 h ([3]; FaSSIF, read-out: Solubility, FaSSIF): 3.4 µg/mL (≈ 4.33 µM)
solubility at 72 h ([3]; FeSSIF, read-out: Solubility, FeSSIF): 12 µg/mL (≈ 15.3 µM)
solubility at 72 h ([3]; blank FaSSIF, read-out: Solubility, Blank FaSSIF): 1.8 µg/mL (≈ 2.29 µM)
Structure (SMILES): CO[C@H]1/C=C/O[C@@]2(C)Oc3c(C)c(O)c4c(O)c(c5c(nc6cc(C)ccn65)c4c3C2=O)NC(=O)/C(C)=C\C=C\[C@H](C)[C@H](O)[C@@H](C)[C@@H](O)[C@@H](C)[C@H](OC(C)=O)[C@@H]1C [Rifaximin]
Caco-2 Papp (Caco-2): 1 [55] 10^–6 cm/s

Structure (SMILES): COc1cc(F)c(C(C)C)cc1-c1ccc(C(F)(F)F)cc1CN1C(=O)O[C@H](c2cc(C(F)(F)F)cc(C(F)(F)F)c2)[C@@H]1C [anacetrapib]
logPoct [4]: > 5

Structure (SMILES): Cc1cc(C#N)cc(C)c1Oc1nc(Nc2ccc(C#N)cc2)nc(N)c1Br [etravirine]
logPoct [4]: > 5

Structure (SMILES): Cc1cn(-c2cc(NC(=O)c3ccc(C)c(Nc4nccc(-c5cccnc5)n4)c3)cc(C(F)(F)F)c2)cn1.Cl [nilotinib HCl]
logPoct [4]: > 5

Structure (SMILES): CC1(C)CCC(CN2CCN(c3ccc(C(=O)NS(=O)(=O)c4ccc(NCC5CCOCC5)c([N+](=O)[O-])c4)c(Oc4cnc5[nH]ccc5c4)c3)CC2)=C(c2ccc(Cl)cc2)C1 [venetoclax]
logPoct [4]: > 5
